Key:
Test in all cases: Post-emergence action, greenhouse pot test, visual scoring
Type in all cases: in vivo
[1] = tested on: Abuthilon theophrasti (ABUTH)
Procedure: (§1) Seeds or rhizome pieces of mono- and dicotyledonous harmful and useful plants were placed in peat pots (diameter 4 cm) filled with sandy loam and then covered with soil. The pots were kept in a greenhouse under optimum conditions. In addition, harmful plants encountered in paddy rice cultivation were cultivated in pots with a water level 2 cm above the soil surface.
(§2) About three weeks after the start of the cultivation, the test plants were treated at the 2- to 3-leaf stage. The herbicides, formulated as powder or liquid concentrates, were, either alone or in the combinations according to the invention, sprayed in various dosages on to the green parts of the plants using an application rate of 600 l of water/ha (converted). For further cultivation of the plants, the pots were then again kept under optimum conditions in a greenhouse.
(§3) The visual scoring of the herbicidal effects was carried out in intervals up to 21 days after the treatment. Scoring was carried out in percent in comparison to the untreated control plants. 0%=no herbicidal activity, 100%=complete herbicidal activity=complete kill.
(§4) The percentages from the treatments with the herbicides alone (=individual application) and with the combinations according to the invention (=mixtures) were employed to calculate interactions using the method of Colby. When the observed efficacies of the mixtures exceed the formal sum of the values of the tests with individual applications, they also exceed the expected value according to Colby, which is calculated using the formula below (cf. S. R. Colby; in Weeds 15 (1967) pp. 20 to 22):
(§5) Here: • A, B=activity of components A and B in percent at a dosage of a and b g of ai/ha (=gramm of active substance per hectare), respectively. • E=expected value in % at a dosage of a+b g of ai/ha.

[2] = tested on: Pharbitis purpurea (PHBPU)
Procedure: as §1, §2, §3, §4, §5

Setaria viridis (SETVI) = tested on: Setaria viridis (SETVI)
Procedure: as §1, §2, §3, §4, §5

[3] = tested on: Triticum aestivum (TRZAS); settings: 10 DAT
Procedure: as §1, §2, §3, §4, §5

Oryza sativa (ORYSA) = tested on: Oryza sativa (ORYSA)
Procedure: as §1, §2, §3, §4, §5

[4] = tested on: Fallopia (ex Polygonum) convolvulus (POLCO)
Procedure: as §1, §2, §3, §4, §5

[5] = tested on: Amaranthus retroflexus (AMARE)
Procedure: as §1, §2, §3, §4, §5

[6] = tested on: Alopecurus myosuroides (ALOMY)
Procedure: as §1, §2, §3, §4, §5

[7] = tested on: Echinochloa crus-galli (ECHCG); settings: 21 DAT
Procedure: as §1, §2, §3, §4, §5

[8] = tested on: Matricaria inodora (MATIN)
Procedure: as §1, §2, §3, §4, §5

Zea mays (ZEAMX) = tested on: Zea mays (ZEAMX)
Procedure: as §1, §2, §3, §4, §5

[9] = tested on: Lolium multiflorum (LOLMU)
Procedure: as §1, §2, §3, §4, §5

Avena fatua (AVEFA) = tested on: Avena fatua (AVEFA)
Procedure: as §1, §2, §3, §4, §5

Viola tricolor (VIOTR) = tested on: Viola tricolor (VIOTR)
Procedure: as §1, §2, §3, §4, §5

Veronica persica (VERPE) = tested on: Veronica persica (VERPE)
Procedure: as §1, §2, §3, §4, §5

[10] = tested on: Cyperus esculentus (CYPES); settings: 21 DAT
Procedure: as §1, §2, §3, §4, §5

[11] = 21 DAT, component A 4 g of ai/ha
[12] = 21 DAT, component A 12 g of ai/ha
[13] = 10 DAT, component A 4 g of ai/ha
[14] = 21 DAT, component B 900 g of ai/ha
[15] = 10 DAT, component B 300 g of ai/ha
[16] = 21 DAT, component B 300 g of ai/ha
[17] = 10 DAT, component B 900 g of ai/ha
[18] = 10 DAT, component B 400 g of ai/ha
[19] = 10 DAT, component B 1200 g of ai/ha
[20] = 21 DAT, component B 400 g of ai/ha
[21] = 21 DAT, component B 1200 g of ai/ha

COc1nc(OC)nc(C(=O)c2cccc(F)c2N(C)S(=O)(=O)C(F)F)n1 [A-1]
% activity found [1, 11]: 85% | % activity found [1, 12]: 85% | % activity found ([2]; 10 DAT, component A 12 g of ai/ha): 60% | % activity found [2, 11]: 60% | % activity found (Setaria viridis (SETVI); [13]): 50% | % activity found ([3]; component A 4 g of ai/ha): 0% | % activity found (Oryza sativa (ORYSA); [12]): 10% | % activity found [4, 12]: 70% | % activity found [5, 11]: 70% | % activity found [6, 13]: 40% | % activity found [6, 11]: 40% | % activity found ([7]; component A 4 g of ai/ha): 85% | % activity found [8, 12]: 60% | % activity found (Zea mays (ZEAMX); [13]): 0% | % activity found (Zea mays (ZEAMX); [12]): 0%

CC(C)(NC(=O)NCc1ccccc1Cl)c1ccccc1 [B1-1, N-[(2-chlorophenyl)methyl]-N′-(1-methyl-1-phenylethyl)urea]
% activity found [9, 14]: 0% | % activity found [1, 15]: 0% | % activity found [1, 16]: 0% | % activity found [1, 14]: 0% | % activity found [2, 15]: 0% | % activity found [2, 17]: 0% | % activity found [2, 16]: 0% | % activity found [2, 14]: 30% | % activity found (Setaria viridis (SETVI); [15]): 0% | % activity found (Setaria viridis (SETVI); [17]): 0% | % activity found (Setaria viridis (SETVI); [16]): 0% | % activity found (Setaria viridis (SETVI); [14]): 0% | % activity found ([3]; component B 900 g of ai/ha): 5% | % activity found (Avena fatua (AVEFA); [15]): 0% | % activity found (Avena fatua (AVEFA); [17]): 0% | % activity found (Oryza sativa (ORYSA); [15]): 0% | % activity found [4, 16]: 0% | % activity found [4, 14]: 0% | % activity found (Viola tricolor (VIOTR); [14]): 10% | % activity found (Veronica persica (VERPE); [15]): 0% | % activity found (Veronica persica (VERPE); [17]): 0% | % activity found (Veronica persica (VERPE); [16]): 0% | % activity found (Veronica persica (VERPE); [14]): 0% | % activity found [5, 16]: 0% | % activity found [5, 14]: 20% | % activity found [6, 15]: 0% | % activity found [6, 17]: 0% | % activity found [6, 16]: 0% | % activity found [6, 14]: 0% | % activity found ([7]; component B 300 g of ai/ha): 0% | % activity found [8, 15]: 20% | % activity found [8, 16]: 0% | % activity found [8, 14]: 0% | % activity found (Zea mays (ZEAMX); [15]): 0% | % activity found (Zea mays (ZEAMX); [17]): 0% | % activity found (Zea mays (ZEAMX); [16]): 5% | % activity found (Zea mays (ZEAMX); [14]): 0%

Cc1ccc(NC(=O)NC(C)(C)c2ccccc2)cc1 [B2-4, N-(4-methylphenyl)-N′-(1-methyl-1-phenylethyl)urea]
% activity found [9, 18]: 0% | % activity found [9, 19]: 0% | % activity found [9, 20]: 0% | % activity found [9, 21]: 0% | % activity found [1, 18]: 0% | % activity found [1, 19]: 0% | % activity found [1, 20]: 0% | % activity found [1, 21]: 0% | % activity found [2, 18]: 0% | % activity found [2, 19]: 0% | % activity found [2, 20]: 0% | % activity found [2, 21]: 0% | % activity found (Setaria viridis (SETVI); [21]): 40% | % activity found ([3]; component B 400 g of ai/ha): 0% | % activity found ([3]; component B 1200 g of ai/ha): 0% | % activity found (Avena fatua (AVEFA); [20]): 0% | % activity found (Avena fatua (AVEFA); [21]): 0% | % activity found (Oryza sativa (ORYSA); [21]): 10% | % activity found [4, 18]: 0% | % activity found [4, 19]: 0% | % activity found [4, 20]: 0% | % activity found [4, 21]: 0% | % activity found (Viola tricolor (VIOTR); [18]): 0% | % activity found (Viola tricolor (VIOTR); [19]): 0% | % activity found (Viola tricolor (VIOTR); [20]): 0% | % activity found (Viola tricolor (VIOTR); [21]): 0% | % activity found (Veronica persica (VERPE); [20]): 0% | % activity found (Veronica persica (VERPE); [21]): 0% | % activity found ([10]; component B 400 g of ai/ha): 0% | % activity found ([10]; component B 1200 g of ai/ha): 0% | % activity found [5, 19]: 0% | % activity found [5, 20]: 0% | % activity found [5, 21]: 0% | % activity found [6, 18]: 0% | % activity found [6, 20]: 0% | % activity found [6, 21]: 0% | % activity found [8, 18]: 0% | % activity found [8, 19]: 0% | % activity found [8, 20]: 0% | % activity found [8, 21]: 20% | % activity found (Zea mays (ZEAMX); [18]): 0% | % activity found (Zea mays (ZEAMX); [19]): 10%
